According to patent publication US12624039B2, “BTK inhibitors” (DIZAL (JIANGSU) PHARMACEUTICAL CO., LTD., priority 2020, dated 2026):
pIC50: −log10 of the molar value. Where two headings read alike, the source gives them in different places.

Legend:
[1] = test system: TMD-8 cells; test: TMD-8 anti-proliferation assay; type: cell-based
Procedure: TMD-8 Anti-Proliferation Assay
TMD-8 cells were prepared in RPMI1640 media containing 10% foetal bovine, and plated in 384 well plates at 1500 cells per well, The cells were incubated overnight at 37° C., 5% CO2. After incubation, compounds with different concentration were added to the assay plates and incubate cells for a further 72 hours at 37° C., 5% CO2. Following 72 hours incubation, 15 μl of CellTiter 96® AQueous One Solution Reagent was added to each well and the plates incubated at room temperature for 30 mins. Cell viability was determined using the CellTiter-Glo (Promega, USA). The CellTiter-Glo assay was performed according to the manufacturer's instructions, and luminescence was determined in a multi-label reader (Envision, PerkinElmer, USA). The data were processed in XLfit software.

[2] = molecular target: T1, Recombinant BTK wild type (BTK WT) (Homo sapiens, UniProt Q06187); test: BTK WT HTRF kinase assay; type: biochemical; details: 30 min pre-incubation, 120 min reaction
T1 construct: purchased Thermo fisher
T1 sequence (Q06187 whole entry): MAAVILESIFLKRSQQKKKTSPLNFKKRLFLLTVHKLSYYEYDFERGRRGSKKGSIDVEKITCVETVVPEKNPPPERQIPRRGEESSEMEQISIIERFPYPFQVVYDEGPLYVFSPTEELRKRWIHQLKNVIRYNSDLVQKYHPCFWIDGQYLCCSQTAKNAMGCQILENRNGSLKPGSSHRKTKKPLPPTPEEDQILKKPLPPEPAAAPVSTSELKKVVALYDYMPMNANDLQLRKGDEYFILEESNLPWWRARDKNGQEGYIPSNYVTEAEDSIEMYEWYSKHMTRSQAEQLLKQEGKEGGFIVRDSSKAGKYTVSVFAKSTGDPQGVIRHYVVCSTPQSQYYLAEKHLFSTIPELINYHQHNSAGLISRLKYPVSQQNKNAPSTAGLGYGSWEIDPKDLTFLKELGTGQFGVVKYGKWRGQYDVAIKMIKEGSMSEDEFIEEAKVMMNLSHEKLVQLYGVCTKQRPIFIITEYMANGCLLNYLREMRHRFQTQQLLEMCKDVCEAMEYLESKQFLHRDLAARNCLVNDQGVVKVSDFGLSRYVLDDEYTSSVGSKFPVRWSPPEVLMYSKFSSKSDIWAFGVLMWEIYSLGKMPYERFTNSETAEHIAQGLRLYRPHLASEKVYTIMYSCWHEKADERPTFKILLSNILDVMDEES
Procedure: Recombinant BTK wild type (BTK WT) was purchased from Thermo fisher.
In brief, recombinant kinases were pre-incubated in the presence or absence of compound at room temperature for 30 minutes. The reaction was initiated by the addition of the ATP and substrate peptide which could be phosphorylated by kinases in the reaction. After 120 minutes incubation, the reaction was stopped by the addition of the detection reagent mix containing EDTA.

[3] = Log D determination (octanol/phosphate buffer); type: physicochemical; details: 25° C.
Procedure: 10 μL of working solution of each cassette is placed in order into respective 96-well rack position (Log D plate). Add 500 μL of saturated octanol into each vial of the above cap-less Log D plate followed by the addition of 500 μL of saturated phosphate buffer. Seal with a moulded PTFE/SIL 96-Well Plate Cover.
The samples are centrifuged at 4,000 rpm at 25° C. for 30 minutes to separate the phases. Pipette and syringe are used to pipette about 100 μL from the octanol and buffer phases to a new 96-well plate, respectively.
5 μL of octanol sample is transferred to a new 96-well plate, followed by addition of 495 μL of a mixture of H2O and acetonitrile containing internal standard (1:1) as 100 fold octanol samples. Vortex for 5 minutes at 1,000 rpm.
50 μL of 100 fold samples are transferred to new 96-well plate, followed by addition of 450 μL of a mixture of H2O and acetonitrile containing internal standard (1:1) as 1,000 fold octanol samples. Vortex for 5 minutes at 1,000 rpm.
The 1,000 folds octanol samples are serially diluted into 10,000, 100,000 and 1,000,000 folds with a mixture of H2O and acetonitrile containing internal standard (1:1).
50 μL of buffer samples are transferred to new 96-well plate, followed by addition of 450 μL of a mixture of H2O and acetonitrile containing internal standard (1:1) as 10 folds buffer samples. Vortex for 5 minutes at 1,000 rpm.
The 10 folds buffer samples are serially diluted into 100, 1,000 and 10,000 folds with a mixture of H2O and acetonitrile containing internal standard (1:1). The samples are evaluated by LC/MS/MS analysis. All compounds are tested in singlicate.
All calculations are carried out using Microsoft Excel. The concentrations of test compound in octanol/buffer solution are evaluated by LC/MS/MS. Calculate the Log D value of the test compound as follows:
[formula] DF means the dilution factor. Procedure for Protein Binding Measurements in Human Plasma by Using Equilibrium Dialysis

[4] = molecular target: T2, BTK-C481S in HEK293-BTK(C481S) cells (Homo sapiens, UniProt Q06187, C481S); test: HEK293-BTK(C481S) p-BTK ELISA; type: cell-based; details: 1.5 hour
T2 construct: Full-length cDNAs of BTK containing C481S mutation was generated by mutagenesis; expressed in transfected cells
T2 sequence (Q06187 whole entry C481S): as the sequence (Q06187 whole entry) above, with C481S counted along it
Procedure: (§1) The mutated BTK cDNAs were confirmed by sequencing. […] The transfected cells were selected in 2 μg/mL of puromycin. Stable polyclonal cell lines were confirmed by WB and used for further study. […] All the cells were maintained in a humidified incubator at 37° C. with 5% CO2.
(§2) The test compounds were added to the cells and cells were incubated for 1.5 hour at 37° C., 5% CO2. […] The plate was read on a Multiscan Spectrum reader set to 450 nm wavelengths. The data were processed in Graph Pad Prism software.

[5] = molecular target: T3, BTK(WT) in HEK293-BTK(WT) cells (Homo sapiens, UniProt Q06187); test: HEK293-BTK(WT) p-BTK ELISA; type: cell-based; details: 1.5 hour
T3 construct: Full-length cDNAs of BTK containing C481S mutation was generated by mutagenesis; expressed in transfected cells
Procedure: as §1, §2

[6] = In vitro plasma and brain binding assay (free fractions); type: in vitro ADME, rat
Procedure: (§3) A Short oral absorption (SOA) model is an in-vivo screening model to identify brain penetration of a compound. To evaluate the potential of a compound to cross the blood-brain barrier in rats, total brain-to-plasma ratio (Kp,brain) was measured AUCbrain/AUCplasma. CSF-to-plasma ratio (Kp,CSF) was determined by either AUCCSF/AUCplasma or the average of CSF-to-plasma ratios at available time points after oral administration, respectively. Free fractions of in biological matrix were determined by in vitro plasma and brain binding assay in a separate study. Kp,uu,brain and Kp,uu,CSF were calculated by the following equations: (1) Kp,uu,brain=Kp, brain×fu,brain/fu,plasma; (2) Kp,uu,CSF=Kp,CSF/fu,plasma.

[7] = Short oral absorption (SOA) assay in rats, brain penetration; type: in vivo; details: rat; for Kp: brain, AUCbrain/AUCplasma
Procedure: Short Oral Absorption (SOA) Assay in Rats.
as §3

[8] = rat brain free fraction, read-out: Rat fu, br (%)
[9] = rat plasma free fraction, read-out: Rat fu, pl (%)
[10] = Kp,CSF/fu,plasma, read-out: Kp, uu CSF
[11] = Kp,brain×fu,brain/fu,plasma, read-out: Kp, uu brain

Row | Compound | pIC50 ([1]; Homo sapiens, TMD8, 72 h) | pIC50 [2] | logD at 2 h [3] | pIC50 ([1]; 72 hours) | logD [3] | pIC50 [4] | pIC50 [5] | fraction unbound [6, 8] | fraction unbound [6, 9] | Kp [7] | Kp uu [7, 10] | Kp uu [7, 11]
1 | Nc1nccn2c(C3CCC(CO)OC3)nc(-c3ccc(Oc4ccccc4)cc3)c12 (stereo not shown) [Compound 1, (5-(8-amino-1-(4-phenoxyphenyl)imidazo[1,5-a]pyrazin-3-yl)tetrahydro-2H-pyran-2-yl)methanol] | 7.62 | 8.94 | 3.14 | – | – | – | – | – | – | – | – | –
2 | Nc1nccn2c(C3CCC(CO)OC3)nc(-c3ccc(Oc4ccccc4)cc3F)c12 (single isomer, unassigned) [Compound 3, Trans-(5-(8-amino-1-(2-fluoro-4-phenoxyphenyl)imidazo[1,5-a]pyrazin-3-yl)tetrahydro-2H-pyran-2-yl)methanol] | – | 8.20 | – | 6.97 | 2.88 | – | – | – | – | – | – | –
3 | Nc1ncnn2c(C3CCC(CO)OC3)nc(-c3ccc(Oc4ccccc4)cc3F)c12 (single isomer, unassigned) [Compound 11, Trans-(5-(4-amino-5-(2-fluoro-4-phenoxyphenyl)imidazo[5,1-f][1,2,4]triazin-7-yl)tetrahydro-2H-pyran-2-yl)methanol] | – | 8.35 | – | 7.15 | 3.09 | – | – | – | – | – | – | –
4 | Nc1ncnn2c(C3CCC(CO)OC3)nc(-c3ccc(Oc4ccccc4)c(F)c3F)c12 (stereo not shown) [Compound 12, (5-(4-amino-5-(2,3-difluoro-4-phenoxyphenyl)imidazo[1,5-f][1,2,4]triazin-7-yl)tetrahydro-2H-pyran-2-yl)methanol] | – | 9.57 | 3.18 | – | – | 7.33 | 7.75 | – | – | – | – | –
5 | Nc1ncnn2c(C3CCC(CO)OC3)nc(-c3ccc(Oc4ccccc4)cc3F)c12 (single isomer, unassigned) [Compound 9, (5-(4-amino-5-(2-fluoro-4-phenoxyphenyl)imidazo[1,5-a][1,2,4]triazin-7-yl)tetrahydro-2H-pyran-2-yl)methanol] | – | 8.06 | – | 6.79 | 3.00 | – | – | – | – | – | – | –
6 | Nc1ncnn2c(C3CCC(CO)OC3)nc(-c3ccc(Oc4cccc(F)c4F)cc3)c12 (stereo not shown) [Compound 14, (5-(4-amino-5-(4-(2,3-difluorophenoxy)phenyl)imidazo[5,1-f][1,2,4]triazin-7-yl)tetrahydro-2H-pyran-2-yl)methanol] | – | 9.15 | 3.29 | – | – | 7.44 | 7.80 | 0.015 | 0.02 | 0.32 | 0.59 | 0.23
7 | Nc1ncnn2c(C3CCC(CO)OC3)nc(-c3ccc(Oc4ccccc4)cc3F)c12 (single isomer, unassigned) [Compound 8, (5-(4-amino-5-(2-fluoro-4-phenoxyphenyl)imidazo[5,1-f][1,2,4]triazin-7-yl)tetrahydro-2H-pyran-2-yl)methanol] | – | 8.46 | 3.1 | 7.11 | – | – | – | – | – | – | – | –
8 | Nc1nccn2c(C3CCC(CO)OC3)nc(-c3ccc(Oc4cccc(F)c4F)cc3)c12 (single isomer, unassigned) [Compound 7, (5-(8-amino-1-(4-(2,3-difluorophenoxy)phenyl)imidazo[1,5-a]pyrazin-3-yl)tetrahydro-2H-pyran-2-yl)methanol] | – | 8.80 | – | 6.66 | 3.19 | – | – | – | – | – | – | –
9 | Nc1nccn2c(C3CCC(CO)OC3)nc(-c3ccc(Oc4ccccc4)c(F)c3F)c12 (single isomer, unassigned) [Compound 4, (5-(8-amino-1-(2,3-difluoro-4-phenoxyphenyl)imidazo[1,5-a]pyrazin-3-yl)tetrahydro-2H-pyran-2-yl)methanol] | – | 9.31 | 3.1 | 7.79 | – | 7.07 | 7.73 | – | – | – | – | –
10 | Nc1nccn2c(C3CCC(CO)OC3)nc(-c3ccc(Oc4cccc(F)c4F)cc3)c12 (single isomer, unassigned) [Compound 6, (5-(8-amino-1-(4-(2,3-difluorophenoxy)phenyl)imidazo[1,5-a]pyrazin-3-yl)tetrahydro-2H-pyran-2-yl)methanol] | – | 9.21 | 3.28 | 7.56 | – | 7.12 | 7.48 | – | – | – | – | –
11 | Nc1ncnn2c(C3CCC(CO)OC3)nc(-c3ccc(Oc4ccccc4)cc3F)c12 (single isomer, unassigned) [Compound 10, Trans-(5-(4-amino-5-(2-fluoro-4-phenoxyphenyl)imidazo[5,1-f][1,2,4]triazin-7-yl)tetrahydro-2H-pyran-2-yl)methanol] | – | 9.05 | – | 7.49 | 3.07 | 6.77 | 7.22 | 0.022 | 0.037 | 0.38 | 0.56 | 0.23
12 | Nc1nccn2c(C3CCC(CO)OC3)nc(-c3ccc(Oc4ccccc4)c(F)c3F)c12 (single isomer, unassigned) [Compound 5, (5-(8-amino-1-(2,3-difluoro-4-phenoxyphenyl)imidazo[1,5-a]pyrazin-3-yl)tetrahydro-2H-pyran-2-yl)methanol] | – | 8.31 | – | 6.99 | 2.89 | – | – | – | – | – | – | –
13 | Nc1nccn2c(C3CCC(CO)OC3)nc(-c3ccc(Oc4ccccc4)cc3F)c12 (single isomer, unassigned) [Compound 2, Trans-(5-(8-amino-1-(2-fluoro-4-phenoxyphenyl)imidazo[1,5-a]pyrazin-3-yl)tetrahydro-2H-pyran-2-yl)methanol] | – | 9.22 | 3.01 | 7.64 | – | 7.15 | 7.56 | 0.033 | 0.038 | 1.35 | 0.86 | 1.19
